Laboratory results published in ChEMBL document CHEMBL5154907, “Discovery and Anti-Inflammatory Activity Evaluation of a Novel CDK8 Inhibitor through Upregulation of IL-10 for the Treatment of Inflammatory Bowel Disease In Vivo” (J Med Chem, 2022).

Legend:
BMDC = assay: Anti-inflammatory activity against R848-stimulated mouse BMDC cells assessed as upregulation of IL-10 production at 5 uM treated for 24 hrs followed by R848 stimulation for 12 hrs by ELISA method (reference value: 100 %); format: functional; conditions: time 36 hrs
[1] = Transcriptional activity of AP-1 in R848-stimulated mouse BMDC cells transfected with pAP1-luc assessed as ratio of AP-1 activity at 5 uM treated for 24 hrs followed by R848 stimulation for 4 hrs by luminescence based microplate reader analysis relative to control; format: functional; conditions: time 28 hrs
[2] = target: CDK8/Cyclin C (Homo sapiens) (UniProt P49336+P24863); assay: Inhibition of recombinant full length His tagged human CDK8/Cyclin C expressed in Baculovirus at 200 nM incubated for 60 mins in presence of ATP by ADP-Glo kinase assay
CDK8/Cyclin C = CDK8/Cyclin C (Homo sapiens, UniProt P49336); assay: Inhibition of recombinant full length His tagged human CDK8/Cyclin C expressed in Baculovirus incubated for 60 mins in presence of ATP by ADP-Glo kinase assay
CDK8/Cyclin C, sequence (P49336 whole entry): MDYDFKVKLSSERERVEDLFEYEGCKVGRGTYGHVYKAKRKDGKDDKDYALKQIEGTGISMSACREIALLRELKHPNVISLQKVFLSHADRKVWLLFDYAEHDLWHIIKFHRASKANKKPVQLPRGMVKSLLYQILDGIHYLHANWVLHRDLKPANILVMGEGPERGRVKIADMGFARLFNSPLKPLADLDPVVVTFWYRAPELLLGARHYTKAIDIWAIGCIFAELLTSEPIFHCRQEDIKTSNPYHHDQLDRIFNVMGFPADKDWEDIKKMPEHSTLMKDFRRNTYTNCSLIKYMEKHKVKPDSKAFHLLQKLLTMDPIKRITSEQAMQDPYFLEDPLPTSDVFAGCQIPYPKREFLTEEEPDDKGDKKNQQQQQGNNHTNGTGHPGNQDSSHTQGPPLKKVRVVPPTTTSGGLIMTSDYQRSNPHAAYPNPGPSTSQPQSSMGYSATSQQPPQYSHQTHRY
CDK8/Cyclin C, sequence (P24863 whole entry, further chain): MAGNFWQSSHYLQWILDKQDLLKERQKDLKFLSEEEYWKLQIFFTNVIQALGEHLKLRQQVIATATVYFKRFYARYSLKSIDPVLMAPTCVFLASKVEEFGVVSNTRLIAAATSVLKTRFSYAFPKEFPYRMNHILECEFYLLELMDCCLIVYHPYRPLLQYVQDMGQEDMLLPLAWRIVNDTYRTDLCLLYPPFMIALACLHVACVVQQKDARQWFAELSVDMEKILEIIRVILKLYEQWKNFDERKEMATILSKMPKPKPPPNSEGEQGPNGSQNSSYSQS

[3] = Stability of compound in human liver microsome assessed as intrinsic clearance by HPLC analysis; format: ADME; conditions: liver microsomes, read-out: CLH

SMILES	Activity (BMDC) [%]	Ratio [1]	inhibition [2] [%]	IC50 (CDK8/Cyclin C) [nM]	microsomal CLint [3] [µL/min/mg]
Nc1ncc(C(=O)Nc2ccccc2)cc1-c1ccc(C(=O)N2CCNCC2)cc1	56	1.7	44	260	
CC(=O)Nc1ccc(NC(=O)c2cncc(-c3ccc(C(=O)N4CCNCC4)cc3)c2)cc1	37	1.1	35	1050	
Nc1ccc(-c2cc(O)c3c(=O)cc(-c4ccccc4)oc3c2)cc1	21	2.6	64	112	
O=c1cc(-c2ccccc2)oc2cc(-c3ccc(CN4CCNCC4)cc3)cc(O)c12	33	1.9	69	144	15.9
Cc1ccccc1NC(=O)c1cncc(-c2ccc(C(=O)N3CCNCC3)cc2)c1	70	1.5	81	70	13
O=C(Nc1cccc(C(F)(F)F)c1)c1cncc(-c2ccc(C(=O)N3CCNCC3)cc2)c1	42	1.41	24	1140	
O=c1cc(-c2ccccc2)oc2cc(-c3ccc(N4CCNCC4)cc3)cc(O)c12	80	1.5	53	190	13.7
O=C(Nc1ccccc1)c1cc(-c2ccc(C(=O)N3CCNCC3)cc2)ccn1	72	2.3	78	87	10.4
COc1ccc(NC(=O)c2cncc(-c3ccc(C(=O)N4CCNCC4)cc3)c2)cc1	74	1.7	77	81	
Nc1ncc(-c2ccc(C(=O)N3CCNCC3)cc2)cc1C(=O)Nc1ccccc1	61	2.7	62	134	
O=C(Nc1ccccc1)c1ccnc(-c2ccc(C(=O)N3CCNCC3)cc2)c1	29	2.4	65	80	10.9
O=C(Nc1ccccc1)c1cncc(-c2ccc(C(=O)N3CCNCC3)cc2)c1	76	2.8	79	80	7.3
O=C(Nc1ccccc1)c1ccc(O)c(-c2ccc(C(=O)N3CCNCC3)cc2)c1	26	1.2	57	214	
CCc1cccc(NC(=O)c2cncc(-c3ccc(C(=O)N4CCNCC4)cc3)c2)c1	34	1.7	73	104	
Nc1ccccc1NC(=O)c1cncc(-c2ccc(C(=O)N3CCNCC3)cc2)c1	24	1.63	27	947	
O=C(Nc1ccccc1)c1cc(O)cc(-c2ccc(C(=O)N3CCNCC3)cc2)c1	82	1.3	30	530	9.5
COc1cccc(NC(=O)c2cncc(-c3ccc(C(=O)N4CCNCC4)cc3)c2)c1	65	2	80	65	7
CCc1ccc(NC(=O)c2cncc(-c3ccc(C(=O)N4CCNCC4)cc3)c2)cc1	40	1.9	71	96	
O=C(Nc1ccc(Cl)cc1)c1cncc(-c2ccc(C(=O)N3CCNCC3)cc2)c1	33	1.55	20	1470	
O=c1cc(-c2ccccc2)oc2cc(-c3ccccc3)cc(O)c12		1.5	46	234	10.9
O=C(c1ccc(-c2cc(O)c3c(=O)cc(-c4ccccc4)oc3c2)cc1)N1CCNCC1	43	2.4	75	72	12.9
Cc1cccc(NC(=O)c2cncc(-c3ccc(C(=O)N4CCNCC4)cc3)c2)c1	62	1.6	76	75	
COc1c(O)cc(O)c2c(=O)cc(-c3ccccc3)oc12 [WOGONIN]	65	1.4		5900	11.3
Nc1ccc(NC(=O)c2cncc(-c3ccc(C(=O)N4CCNCC4)cc3)c2)cc1	30	1.72	34	3650	
O=C(Nc1ccccc1)c1cc(-c2ccc(C(=O)N3CCNCC3)cc2)ccc1O	40	1.2	54	210	
